Measured values reported in BindingDB's records for patent US20250026742 (Suzhou Ark Biopharmaceutical Co., 2025).

Target: Serine/threonine-protein kinase ATR (Homo sapiens, UniProt Q13535)
Assay: ATR Enzyme Activity Inhibition Assay
Procedure: Prepare various buffer systems required for the experiment:1. […] Prepare detection buffer: Dilute each of the anti-phospho-p53-Eu cryptate (Cisbio, Cat #61P08KA) and anti-GST-d2 (Cisbio, Cat #61GSTDLB) to 1 unit using HTRF detection buffer (Cisbio, Cat #62SDBRDF).Powdered compounds were dissolved in DMSO to from a stock solution at a concentration of 10 mM. The solution of compounds to be tested at a concentration of […] was performed a 3-fold dilution for 10 concentrations with DMSO. […] 5 μL of ATR was added to each well accordingly. Each well is incubated at 25° C. for 10 min, added with 5 μL of reaction substrate, incubated at 25° C. for 90 min and added with 10 μL of detection solution.

Sequence of Serine/threonine-protein kinase ATR (Q13535 whole entry): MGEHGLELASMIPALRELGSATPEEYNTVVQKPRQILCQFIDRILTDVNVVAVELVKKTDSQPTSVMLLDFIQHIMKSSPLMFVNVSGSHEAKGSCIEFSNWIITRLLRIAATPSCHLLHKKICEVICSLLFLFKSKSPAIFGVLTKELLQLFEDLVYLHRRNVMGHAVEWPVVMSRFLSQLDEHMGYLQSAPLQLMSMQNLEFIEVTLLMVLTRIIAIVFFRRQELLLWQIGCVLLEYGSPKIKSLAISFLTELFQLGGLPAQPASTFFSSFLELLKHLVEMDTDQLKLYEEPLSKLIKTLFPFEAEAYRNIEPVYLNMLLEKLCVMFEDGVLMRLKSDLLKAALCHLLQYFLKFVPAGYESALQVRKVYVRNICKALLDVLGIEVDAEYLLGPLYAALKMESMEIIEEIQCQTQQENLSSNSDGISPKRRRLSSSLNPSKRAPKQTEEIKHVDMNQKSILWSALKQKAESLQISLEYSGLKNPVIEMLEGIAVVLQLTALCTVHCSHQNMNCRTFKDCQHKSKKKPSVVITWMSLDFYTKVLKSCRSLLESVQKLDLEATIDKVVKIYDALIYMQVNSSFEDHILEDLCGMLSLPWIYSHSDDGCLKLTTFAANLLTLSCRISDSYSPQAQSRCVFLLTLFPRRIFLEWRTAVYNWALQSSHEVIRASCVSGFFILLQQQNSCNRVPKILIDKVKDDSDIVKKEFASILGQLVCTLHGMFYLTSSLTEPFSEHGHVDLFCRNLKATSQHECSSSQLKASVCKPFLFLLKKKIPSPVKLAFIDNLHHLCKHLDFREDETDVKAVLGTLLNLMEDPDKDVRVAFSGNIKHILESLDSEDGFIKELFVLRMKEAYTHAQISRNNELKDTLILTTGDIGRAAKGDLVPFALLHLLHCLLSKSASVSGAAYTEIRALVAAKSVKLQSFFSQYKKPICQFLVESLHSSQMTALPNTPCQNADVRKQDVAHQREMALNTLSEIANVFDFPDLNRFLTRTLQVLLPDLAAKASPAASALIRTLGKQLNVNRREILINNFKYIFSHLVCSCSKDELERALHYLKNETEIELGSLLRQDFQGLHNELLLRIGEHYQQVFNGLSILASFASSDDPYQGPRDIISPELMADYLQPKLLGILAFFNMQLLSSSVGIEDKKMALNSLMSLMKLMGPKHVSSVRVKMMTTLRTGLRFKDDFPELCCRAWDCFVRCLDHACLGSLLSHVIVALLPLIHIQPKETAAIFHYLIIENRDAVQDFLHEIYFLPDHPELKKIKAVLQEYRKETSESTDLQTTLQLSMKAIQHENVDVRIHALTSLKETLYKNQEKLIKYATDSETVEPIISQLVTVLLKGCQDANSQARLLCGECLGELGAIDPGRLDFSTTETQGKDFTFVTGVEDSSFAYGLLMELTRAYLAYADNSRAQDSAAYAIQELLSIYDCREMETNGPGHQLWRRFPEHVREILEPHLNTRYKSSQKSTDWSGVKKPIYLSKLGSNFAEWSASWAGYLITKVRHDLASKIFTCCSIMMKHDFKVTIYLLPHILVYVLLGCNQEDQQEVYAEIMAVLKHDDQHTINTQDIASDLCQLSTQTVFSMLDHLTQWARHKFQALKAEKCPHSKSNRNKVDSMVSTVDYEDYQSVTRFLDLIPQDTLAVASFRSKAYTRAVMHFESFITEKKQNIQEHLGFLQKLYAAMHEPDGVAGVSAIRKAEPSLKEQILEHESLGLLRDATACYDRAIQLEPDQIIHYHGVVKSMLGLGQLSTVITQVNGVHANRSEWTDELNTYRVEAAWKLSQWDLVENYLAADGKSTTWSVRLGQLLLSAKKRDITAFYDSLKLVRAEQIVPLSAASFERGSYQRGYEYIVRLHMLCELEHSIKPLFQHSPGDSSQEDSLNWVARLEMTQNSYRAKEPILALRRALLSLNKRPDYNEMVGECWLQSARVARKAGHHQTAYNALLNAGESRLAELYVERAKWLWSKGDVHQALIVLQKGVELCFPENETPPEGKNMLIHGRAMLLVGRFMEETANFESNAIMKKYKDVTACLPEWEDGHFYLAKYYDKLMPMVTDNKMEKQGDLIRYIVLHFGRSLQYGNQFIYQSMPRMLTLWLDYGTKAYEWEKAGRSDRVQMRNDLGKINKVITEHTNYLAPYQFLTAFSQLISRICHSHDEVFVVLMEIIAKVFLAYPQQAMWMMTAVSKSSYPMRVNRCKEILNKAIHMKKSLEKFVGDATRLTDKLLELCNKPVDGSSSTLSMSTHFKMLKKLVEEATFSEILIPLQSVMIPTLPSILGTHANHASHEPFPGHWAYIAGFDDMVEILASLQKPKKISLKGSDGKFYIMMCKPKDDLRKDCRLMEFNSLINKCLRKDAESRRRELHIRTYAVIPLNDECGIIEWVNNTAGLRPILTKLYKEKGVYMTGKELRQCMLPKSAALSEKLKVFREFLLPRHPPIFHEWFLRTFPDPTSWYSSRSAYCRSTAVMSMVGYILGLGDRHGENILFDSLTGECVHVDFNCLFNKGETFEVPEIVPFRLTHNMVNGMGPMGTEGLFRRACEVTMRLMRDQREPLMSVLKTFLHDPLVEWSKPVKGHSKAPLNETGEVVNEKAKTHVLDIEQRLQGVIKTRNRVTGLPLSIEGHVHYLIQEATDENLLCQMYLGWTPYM

SMILES	IC50 [nM]
CC(C)S(=O)(=O)c1ccc(-c2cnc(N)c(-c3cc(-c4ccc(CNC(N)=O)cc4)no3)n2)cc1 [US20250026742, Example 9]	1.83
CC(=N)Nc1ccc(-c2cc(-c3nc(-c4ccc(S(=O)(=O)C(C)C)cc4)cnc3N)on2)cc1 [US20250026742, Example 29]	3.12
CN=S(C)(=O)c1ccc(-c2cnc(N)c(-c3cc(-c4ccc(CNC(=N)N)cc4)no3)n2)cc1 (stereo not drawn) [US20250026742, Example 12]	2.53
